One assay has as its system HCMV (strain AD169). Put plainly: Inhibition of HCMV replication, ELISA assay (Hs-68 cells). To be noted: read-out: ELISA CMV EC50. In kind it is cell-based, Human Cytomegalovirus (HCMV). As for the experimental part: C) Inhibition of Human Cytomegalovirus (HCMV) Replication
The effect of compounds on the replication of HCMV has been measured by using an ELISA-based assay (ELISA) and a plaque reduction assay (PRA).
Hs-68 cells (ATCC # CRL 1635) were seeded in 96 well microtiter plates at 10,000 cells/well in 100 μL of DMEM medium (Gibco Canada Inc.) supplemented with 10% fetal bovine serum (FBS, Gibco Canada Inc.). The plates were incubated for 3 days at 37° to allow the cells to reach 80-90% confluency prior to the assay.
The medium was removed from wells by aspiration. The cells then were infected at a multiplicity of infection (MOI) of 0.01 PFU/cell with 50 μL of HCMV (strain AD169, ATCC VR-538) in DMEM medium supplemented with 5% heat inactivated FBS (assay medium). The virus was allowed to adsorb to cells for 2 h at 37°. Following viral adsorption, the medium was removed from the wells by aspiration. The cells were washed twice with 200 μL of assay medium to remove unabsorbed virus. The cells were then incubated with or without 100 μL of appropriate concentrations of test reagent in assay medium. After 8 days of incubation at 37°, the extent of viral replication was determined by an ELISA assay which detects the late structural protein p28 of HCMV.
Eight days after infection, the medium was aspirated from the wells. Non-specific binding sites were blocked by adding 200 μL of phosphate buffered saline containing 1% (w/v) bovine serum albumin (blocking buffer) to each well and incubating the plates for 30 min at room temperature. After removal of the blocking buffer by aspiration, the cells were fixed with 100 μL of cold ethanol-acetone solution (95:5) per well. The plates were placed at -20° for 30 min. The plates were washed 4 times with phosphate buffered saline containing 0.05% (v/v) polyoxyethylene sorbitan monolaurate (Tween®). Thereafter, 100 μL of mAb UL99 (Advanced Biotechnologies Inc., #13-130-100) recognizing HCMV protein p28 was added to each wells and plates were incubated for 2 h at room temperature. The plates were washed four times with 200 μL of the above-noted phosphate buffered saline/Tween-20® solution. The cells were then incubated with 100 μL of sheep anti-mouse IgGγ horseradish peroxidase conjugated for 2 h at room temperature. The plates were then washed four times with 200 μL of above-noted phosphate buffered saline/Tween-20® solution. Thereafter, 100 μL of ortho phenylenediamine dihydrochloride (OPD, Gibco Canada Inc.) solution was added to each well and the plates were agitated on a microplate shaker for 30 min in the dark. Color development was monitored at 450 nm using a microplate spectrophotometer.
The SAS program was used to calculate the % inhibition of viral replication and to generate EC50 values.
The EC50 values obtained according to this assay method for certain thiazolylphenyl derivatives of this invention are listed in the following tables under the heading ELISA CMV.

The next assay relates to HSV-1 strain F or KOS. Put plainly: Inhibition of herpes simplex virus (HSV-1) replication in cell culture (BHK-21 cells, glycoprotein C ELISA). The assay is classed as cell-based. In outline: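 BHK-21 clone 13 cells infected with HSV-1 F or KOS at MOI 0.05 PFU/cell for 1 h at 37°, washed, then treated with compound in α-MEM/2% FBS for 24 h. Late glycoprotein C quantified by ELISA (mAb C11, HRP/OPD, 450 nm); EC50 from % inhibition.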
For orientation: An ELISA detects its analyte on a solid surface through an enzyme-linked reagent.

The target of another assay is T1, HSV-1 helicase-primase (Human herpesvirus 1, UniProt P10189+P10236).
T1 construct: made in house; host or cells: Sf21 insect cells triply infected with recombinant baculoviruses (UL5, UL8, UL52)
T1 sequence (P10192 whole entry): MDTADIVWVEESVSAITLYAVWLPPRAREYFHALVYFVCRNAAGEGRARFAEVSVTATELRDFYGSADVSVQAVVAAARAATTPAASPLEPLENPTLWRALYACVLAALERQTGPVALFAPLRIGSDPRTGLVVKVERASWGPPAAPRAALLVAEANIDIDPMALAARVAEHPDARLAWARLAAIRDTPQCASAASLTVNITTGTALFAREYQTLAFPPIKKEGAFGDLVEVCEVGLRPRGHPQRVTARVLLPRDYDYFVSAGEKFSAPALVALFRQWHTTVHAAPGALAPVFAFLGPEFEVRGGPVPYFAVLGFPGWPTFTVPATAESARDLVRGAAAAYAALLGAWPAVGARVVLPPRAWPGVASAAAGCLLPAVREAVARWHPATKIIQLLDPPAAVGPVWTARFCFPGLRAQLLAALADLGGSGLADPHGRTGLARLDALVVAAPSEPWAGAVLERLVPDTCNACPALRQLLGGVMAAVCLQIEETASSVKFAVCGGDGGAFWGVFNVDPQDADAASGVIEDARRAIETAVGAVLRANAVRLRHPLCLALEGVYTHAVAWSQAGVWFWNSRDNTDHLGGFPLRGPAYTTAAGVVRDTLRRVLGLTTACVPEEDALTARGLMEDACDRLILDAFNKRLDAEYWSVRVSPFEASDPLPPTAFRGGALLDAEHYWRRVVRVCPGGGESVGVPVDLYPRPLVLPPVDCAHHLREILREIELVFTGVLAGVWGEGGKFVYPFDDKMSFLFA
T1 sequence (P10236 whole entry): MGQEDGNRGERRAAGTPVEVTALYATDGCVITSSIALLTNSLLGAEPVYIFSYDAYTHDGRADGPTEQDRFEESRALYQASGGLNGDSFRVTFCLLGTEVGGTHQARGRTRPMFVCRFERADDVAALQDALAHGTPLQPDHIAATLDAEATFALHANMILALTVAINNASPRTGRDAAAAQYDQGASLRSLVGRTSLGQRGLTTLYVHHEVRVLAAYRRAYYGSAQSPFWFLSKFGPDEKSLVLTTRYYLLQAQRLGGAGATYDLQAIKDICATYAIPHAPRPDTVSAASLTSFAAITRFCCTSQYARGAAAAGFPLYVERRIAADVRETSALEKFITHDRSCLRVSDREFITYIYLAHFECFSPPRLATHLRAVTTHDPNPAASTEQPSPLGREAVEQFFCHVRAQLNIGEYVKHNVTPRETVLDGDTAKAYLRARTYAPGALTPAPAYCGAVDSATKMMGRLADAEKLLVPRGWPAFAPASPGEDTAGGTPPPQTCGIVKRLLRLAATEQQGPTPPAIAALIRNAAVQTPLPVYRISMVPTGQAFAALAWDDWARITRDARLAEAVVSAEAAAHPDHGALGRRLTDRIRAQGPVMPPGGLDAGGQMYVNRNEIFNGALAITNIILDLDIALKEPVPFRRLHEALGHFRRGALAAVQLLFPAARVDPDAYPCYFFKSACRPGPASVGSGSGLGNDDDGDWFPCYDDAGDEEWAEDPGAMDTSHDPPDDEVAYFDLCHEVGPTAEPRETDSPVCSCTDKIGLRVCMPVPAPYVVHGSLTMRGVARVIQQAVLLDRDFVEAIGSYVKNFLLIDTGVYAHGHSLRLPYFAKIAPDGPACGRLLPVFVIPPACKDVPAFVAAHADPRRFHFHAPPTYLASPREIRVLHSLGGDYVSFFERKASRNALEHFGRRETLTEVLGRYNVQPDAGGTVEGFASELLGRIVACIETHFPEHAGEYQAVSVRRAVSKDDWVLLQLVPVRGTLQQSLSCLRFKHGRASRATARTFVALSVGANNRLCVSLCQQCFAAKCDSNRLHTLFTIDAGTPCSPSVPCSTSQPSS
T1 sequence (P10189 whole entry): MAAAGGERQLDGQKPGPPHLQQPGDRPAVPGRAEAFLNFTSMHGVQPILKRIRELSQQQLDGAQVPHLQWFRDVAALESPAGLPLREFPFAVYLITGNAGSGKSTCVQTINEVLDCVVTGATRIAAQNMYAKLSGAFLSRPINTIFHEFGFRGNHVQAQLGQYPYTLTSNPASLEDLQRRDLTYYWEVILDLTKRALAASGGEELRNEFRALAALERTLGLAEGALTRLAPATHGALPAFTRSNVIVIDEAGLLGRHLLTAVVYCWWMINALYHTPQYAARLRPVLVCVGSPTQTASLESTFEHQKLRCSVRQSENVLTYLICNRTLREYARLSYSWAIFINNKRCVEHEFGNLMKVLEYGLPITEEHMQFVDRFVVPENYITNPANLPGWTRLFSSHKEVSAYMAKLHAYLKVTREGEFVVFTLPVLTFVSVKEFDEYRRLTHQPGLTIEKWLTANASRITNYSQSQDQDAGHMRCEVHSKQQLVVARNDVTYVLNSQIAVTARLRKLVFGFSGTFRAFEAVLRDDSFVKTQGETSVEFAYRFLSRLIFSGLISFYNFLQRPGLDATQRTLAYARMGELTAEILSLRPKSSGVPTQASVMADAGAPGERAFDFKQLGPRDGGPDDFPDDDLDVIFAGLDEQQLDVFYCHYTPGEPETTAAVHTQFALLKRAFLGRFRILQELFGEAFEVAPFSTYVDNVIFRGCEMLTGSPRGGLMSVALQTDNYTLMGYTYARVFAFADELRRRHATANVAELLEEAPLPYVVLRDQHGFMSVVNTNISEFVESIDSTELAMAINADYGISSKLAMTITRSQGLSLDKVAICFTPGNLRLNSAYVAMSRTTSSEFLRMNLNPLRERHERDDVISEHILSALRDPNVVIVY
Put plainly: HSV-1 DNA-dependent ATPase assay (inhibition of HSV-1 helicase-primase). In kind it is biochemical. The gist of the method:
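Holoenzyme (UL5/UL8/UL52) expressed in baculovirus-infected Sf21 cells and purified, used at 3 μg/mL with 4 mM ATP and 25 μM primed M13 ssDNA in HEPES pH 7.5, 5.5 mM MgCl2, 3.3% DMSO. Incubated 20 min at 34°. Released phosphate read by malachite green at 650 nm, and activity taken from net absorbance with versus without inhibitor.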

Where [1] appears, read: Human betaherpesvirus 5, AD169, Hs68, Group 1 Table 5 entries.
Where [2] appears, read: Human alphaherpesvirus 1, BHK-21, Group 1 Table 5 entries.
[3] abbreviates: Human betaherpesvirus 5, AD169, Hs68, Group 1 Table 1 entries.
[4] abbreviates: Human alphaherpesvirus 1, BHK-21, Group 1 Table 1 entries.

The source of these data is patent publication US6288091A, “Antiherpes virus compounds and methods for their preparation and use” (Boehringer Ingelheim Ltd., priority 1999, dated 2001).

Like-named read-outs stand apart in the source and are kept apart here.

Consider `CC(=O)N[C@@H](Cc1ccccc1)C(=O)Nc1ccc(-c2csc(N)n2)cc1` [Example 21], for which the figures for the EC50 in the assay with HCMV (strain AD169) (setting [1]) and in the assay on HSV-1 strain F or KOS (setting [2]) were 4400 nM and 4700 nM, respectively. Moreover, half-maximal inhibition at HSV-1 helicase-primase (Group 1 Table 5 entries) (IC50) required 3100 nM.

Turning to `CC(C)OC(=O)N[C@@H](Cc1ccccc1)C(=O)Nc1ccc(-c2csc(N)n2)cc1` [Example 22], the EC50 (in general, the concentration at which the effect is half-maximal) amounted to 18000 nM in the assay on HCMV (strain AD169) (setting [1]) and 250 nM with HSV-1 strain F or KOS (setting [2]). In addition, 830 nM corresponded to half-maximal inhibition against HSV-1 helicase-primase (Group 1 Table 5 entries) (IC50).

In the case of `CC(C)(C)OC(=O)N[C@@H](CC1CCCCC1)C(=O)Nc1ccc(-c2csc(N)n2)cc1` [Example 24], the EC50 was determined as 8100 nM with HCMV (strain AD169) (setting [1]) and 43 nM in the assay on HSV-1 strain F or KOS (setting [2]). In addition, at HSV-1 helicase-primase (Group 1 Table 5 entries), the IC50 (commonly the concentration that gives 50% inhibition) was 17 nM.

Take `Cc1cccc(C)c1C(=O)N(CC(=O)Nc1ccc(-c2csc(N)n2)cc1)Cc1ccccc1` [Example 25]: the EC50 with HCMV (strain AD169) (setting [3]) was determined as 4400 nM; with HSV-1 strain F or KOS (setting [4]), 11 nM. The molecule also had an IC50 against HSV-1 helicase-primase (Group 1 Table 1 entries) of 47 nM.

Regarding `CC(C)(C)OC(=O)N[C@@H](Cc1cccnc1)C(=O)Nc1ccc(-c2csc(N)n2)cc1` [Example 26], the EC50 in the assay with HCMV (strain AD169) (setting [1]) is 19900 nM; in the assay with HSV-1 strain F or KOS (setting [2]) it was 43 nM. For the same molecule, the midpoint of inhibition at HSV-1 helicase-primase (Group 1 Table 5 entries), the IC50, lay at 130 nM.

As to `Nc1nc(-c2ccc(NC(=O)NN3CCCCC3)cc2)cs1` [Example 27], the concentration for a half-maximal effect (EC50) worked out at 15400 nM in the assay with HCMV (strain AD169) (Human betaherpesvirus 5, AD169, Hs68, Group 2 Table 1 entries) and 15700 nM in the assay on HSV-1 strain F or KOS (Human alphaherpesvirus 1, BHK-21, Group 2 Table 1 entries). The molecule also gave a half-inhibitory concentration (IC50) against HSV-1 helicase-primase (Group 2 Table 1 entries) of 50000 nM.

As to `CC1(C(=O)N(CC(=O)Nc2ccc(-c3csc(N)n3)cc2)Cc2ccccc2)CCCCC1` [Example 35], the figures for the EC50 in the assay with HCMV (strain AD169) (setting [3]) and in the assay with HSV-1 strain F or KOS (setting [4]) were 8100 nM and 6 nM, respectively. This molecule also registered a half-inhibitory concentration (IC50) on HSV-1 helicase-primase (Group 1 Table 1 entries) of 35 nM.

For `CC(C)(C)OC(=O)N1CCC(C(=O)N(CC(=O)Nc2ccc(-c3csc(N)n3)cc2)Cc2ccccc2)CC1` [Example 40], the EC50 in the assay on HCMV (strain AD169) (setting [3]) amounted to 25000 nM; with HSV-1 strain F or KOS (setting [4]), 700 nM. The molecule further displayed a 50% inhibitory concentration (IC50) against HSV-1 helicase-primase (Group 1 Table 1 entries) of 1700 nM.

`COc1ccc(CN(CC(=O)Nc2ccc(-c3csc(N)n3)cc2)C(=O)C2CCCCC2)cc1` [Example 46]: the EC50 turned out to be 8000 nM with HCMV (strain AD169) (setting [3]) and 94 nM in the assay with HSV-1 strain F or KOS (setting [4]). The same molecule registered an IC50 on HSV-1 helicase-primase (Group 1 Table 1 entries) of 75 nM.

For `Nc1nc(-c2ccc(NC(=O)CN(Cc3ccccn3)C(=O)c3ccncc3)cc2)cs1` [Example 56], the 50% effective concentration (EC50) with HCMV (strain AD169) (setting [3]) came out at 38000 nM; in the assay on HSV-1 strain F or KOS (setting [4]), 550 nM. For the same molecule, the concentration for half-maximal inhibition (IC50) on HSV-1 helicase-primase (Group 1 Table 1 entries) was 1200 nM.

For `Nc1nc(-c2ccc(NC(=O)CN(Cc3ccncc3)C(=O)c3ccc(F)cc3)cc2)cs1` [Example 73], the EC50 in the assay on HCMV (strain AD169) (setting [3]) came to 12600 nM; in the assay on HSV-1 strain F or KOS (setting [4]) it was 17 nM. The molecule further displayed an IC50 against HSV-1 helicase-primase (Group 1 Table 1 entries) of 88 nM.

For the molecule `Nc1nc(-c2ccc(NC(=O)CN(CC3CCCCC3)C(=O)CC3CCCCC3)cc2)cs1` [Example 76], the EC50 was found to be 25000 nM in the assay with HCMV (strain AD169) (setting [3]) and 160 nM in the assay with HSV-1 strain F or KOS (setting [4]). 80 nM corresponded to half-maximal inhibition at HSV-1 helicase-primase (Group 1 Table 1 entries) (IC50).

Turning to `COC(=O)N(CC(=O)Nc1ccc(-c2csc(N)n2)cc1)Cc1ccccc1` [Example 87], the figures for the EC50 with HCMV (strain AD169) (setting [3]) and with HSV-1 strain F or KOS (setting [4]) were 18000 nM and 1100 nM, respectively. The IC50 at HSV-1 helicase-primase (Group 1 Table 1 entries) came out at 2800 nM.

For the molecule `C[C@H](c1ccccc1)N(CC(=O)Nc1ccc(-c2csc(N)n2)cc1)C(=O)OC(C)(C)C` [Example 88], the EC50 with HCMV (strain AD169) (setting [3]) is > 47000 nM; in the assay with HSV-1 strain F or KOS (setting [4]) it was 1200 nM. This molecule also showed an IC50 at HSV-1 helicase-primase (Group 1 Table 1 entries) of 2400 nM.

For the molecule `CC(C)(C)OC(=O)N(CC(=O)Nc1ccc(-c2csc(N)n2)cc1)Cc1ccc(Cl)cc1` [Example 91], the results for the EC50 with HCMV (strain AD169) (setting [3]) and in the assay on HSV-1 strain F or KOS (setting [4]) were 1600 nM and 25 nM, respectively. At HSV-1 helicase-primase (Group 1 Table 1 entries), the IC50 is 70 nM.

With `CN(C)c1cccc2c(S(=O)(=O)N(CC(=O)Nc3ccc(-c4csc(N)n4)cc3)Cc3ccccc3)cccc12` [Example 98], the concentration giving a half-maximal response (EC50) is > 2000 nM in the assay on HCMV (strain AD169) (setting [3]) and 2100 nM in the assay with HSV-1 strain F or KOS (setting [4]). It took 500 nM to reach half-maximal inhibition on HSV-1 helicase-primase (Group 1 Table 1 entries) (IC50).
